One series addresses T1, PAR-1 receptor (Homo sapiens, UniProt P25116).
T1 construct: endogenous in cells; host or cells: HEK 293
T1 sequence (P25116 22-425): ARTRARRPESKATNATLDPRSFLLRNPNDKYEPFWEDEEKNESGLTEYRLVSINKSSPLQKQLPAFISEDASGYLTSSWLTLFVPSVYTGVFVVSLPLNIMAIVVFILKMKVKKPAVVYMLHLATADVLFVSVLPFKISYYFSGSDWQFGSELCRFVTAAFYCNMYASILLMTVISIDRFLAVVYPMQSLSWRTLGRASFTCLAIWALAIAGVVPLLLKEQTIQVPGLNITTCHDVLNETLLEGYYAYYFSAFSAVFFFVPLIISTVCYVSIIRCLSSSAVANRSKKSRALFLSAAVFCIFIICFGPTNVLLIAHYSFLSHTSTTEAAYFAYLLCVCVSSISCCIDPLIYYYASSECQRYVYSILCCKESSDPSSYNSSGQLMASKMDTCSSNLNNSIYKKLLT
The series is described as follows: PAR-1 FLIPR Assay. In kind it is cell-based. The settings on record: HEK 293 cells, calcium signal after PAR-1 selective receptor-activating peptide at EC80. The method, then: This assay measures the potency of the inventive compounds as PAR-1 receptor antagonists.
Frozen HEK 293 Cells were plated in 384-well PDL coated plates at 12000 cells/well in 50 uL of DMEM media containing 10% FBS, pen/strep/L-Glutamine and non-essential amino acids, incubated overnight at 37° C./5% CO2. Media was then removed from the cells, incubated with 33 uL of Calcium-5 dye in assay buffer (Hank's buffer containing 20 mM HEPES, 0.04% Chaps and 2.5 mM Probenecid) for 60 minutes at 37° C. 2 uL of varying concentrations of compound in 40% DMSO in assay buffer (final DMSO concentration is 2.3%) were then added to the cells and incubated at 25° C. for 30 minutes. The plates were added to the FLIPR Tetra®, the device added 5 uL of PAR-1 selective receptor-activating peptide (sequence Ala-parafluoroPhe-Arg-Cha-Cit-Try-Nh2, prepared in water) at a concentration equal to the effective concentration that achieved 80% activation of signaling on the day of the experiment. The range of peptide was from 1.5-3 μM. The final volume was 40 uL/well, with 2% DMSO. The FLIPR was read at an excitation wavelength of 480 nm and an emission wavelength of 535 nm, and performed 60 scans over a 1-2 min reading time. The data were analyzed by taking the peak signal over a portion of the range of the 60 scans and dividing this signal by the minimum signal for that same range. The data were expressed as percent inhibition of the maximum divided by the minimum signal achieved at 80% activation produced by the PAR1 activating peptide on the test day. The compounds of Examples 1-9 were tested in the assay described above and the data collected for these compounds is provided.

Series [1] has as its target CYP3A4 (column heading prints CYP2D6; method and table sentence say CYP3A4) (Homo sapiens, UniProt P08684). The series is described as follows: CYP MUX (3A4) RI. The class given is in vitro ADME. The settings on record: pH 7.4, probe testosterone (75 µM); human liver microsomes; method describes testosterone as substrate for 3A4. The text has this:
This assay measures inhibition of CYP3A4 by a compound. Cytochromes P450 (CYPs) constitute a superfamily of heme-containing enzymes that recognize and metabolize a large number structurally diverse xenobiotics in the human body. CYP3A4 constitutes the largest portion of CYP enzymes in the liver that accounts for the metabolism of almost 50% of all drugs. This assay is used to evaluate the potential of a compound for developing DDIs. (Clarke, S. E.; Jones B. C. Drug-Drug Interactions, New York: Marcel Dekker; 2002. pp. 53-88).
Compound dilutions and assay-ready plates were prepared on a TTP Labtech Mosquito® HTS. Assay conduction was fully automated on a customized Screening Platform from Caliper (now PerkinElmer) containing a Mitsubishi robotic plate handler, Liconic incubators, a Caliper Zephyr® liquid handling workstation equipped with temperature-controlled deck positions, a Biotek MultiFlo™ dispenser and an Agilent PlateLoc heat sealer. Assay plates were Corning Costar® 384 well PP plates. High throughput mass spectrometric readout was performed on a RapidFire® 300 system coupled to an AB Sciex API 4000™ triple quadrupole device. CYP isoform 3A4 was incubated in a separate reaction of 50 μL final volume. 25 μL of HLM (human liver microsomes, BD UltraPool™ 150, 0.25 mg/mL final concentration) and the respective substrate, testosterone (75 μM) for 3A4, in potassium phosphate buffer (100 mM, pH=7.4) were added to 250 nL of stamped compound solution (10 mM in DMSO). The reactions were started upon addition of 25 μL of a co-factor solution containing magnesium chloride (3.3 mM), glucose-6-phosphate (3.3 mM), glucose-6-phosphate dehydrogenase (1.4 units) and NADP (1 mM) in potassium phosphate buffer (100 mM, pH=7.4) and incubated on deck at 37° C. for 10 min. 8 μL of each reaction were transferred to the same readout plated filled with 48 μL of stop solution containing internal standards (concentration in final readout plate), 6-hydroxytestosterone-D7 (0.5 μM), 4′-hydroxydiclofenac-D4′-(0.2 μM), and dextrorphan-D3 (0.01 μM), in acetonitrile with 0.5% formic acid. After heat sealing, plates were stored at −20° C. for at least 30 min, centrifuged and subjected directly to RapidFire®/MS analysis.
(§1) Table 4 summarizes the selectivity of the inventive compounds in the CYP3A4 assay and the ability of the inventive compound to inhibit hERG.
(Microsomes from liver hold many membrane-bound enzymes, among them those of drug oxidation.)

The next series concerns the target T2, hERG channel (Homo sapiens, UniProt Q12809).
T2 construct: expressed in transfected cells; host or cells: HEK293, stably transfected; membranes
The series is described as follows: MK-499 Filter Binding Assay. Conditions: [35S]MK-0499 radioligand competition, membranes of HEK293 cells expressing hERG, read-out: MK499 IC50; for IC50 at 90 min: human, pH 7.4, probe [35S]MK-0499 radioligand.
Text: MK-499 Filter Binding Assay
This assay is used to evaluate the potential of a compound to cause drug-induced log QT syndrome.
Drug cardiac arrhythmia is an important safety concern for pharmaceutical development and health regulatory authorities. Blockade of heterologously-expressed human ether-à-go-go gene (hERG) channel prolongs the duration of the cardiac action potential leading to a long QT interval that can lead to sudden death (De Ponti, F.; et at Drug Safety 2002, 25, pp. 263-286). It is important to have compounds devoid of hERG channel activity as measured by an in vitro assay. Affinity of compounds for the hERG channel was evaluated in radioligand competition experiments using HEK293 cells that were stably transfected with the hERG channel and radiolabeled ligand, MK-499 a potent antiarrhythmic. This assay correlates well with QT prolongation in vivo (Jamieson, C.; et al., J. Med. Chem. 2006, 49, pp. 5029-5046).
25 μL Target membranes (in assay buffer: 10 mM HEPES/NaOH, pH 7.4, 70 mM NaCl, 60 mM KCl, 2 mM MgCl2, 1 mM CaCl2) purified from a HEK293 cell line expressing the human Ether-à-go-go Related Gene (hERG) ion channel, 1 μL test compound in 10 mM DMSO and 25 μL (6,000 cpm/well; in assay buffer) [35S]MK-0499 radioligand (Merck/Perkin Elmer) are added to the assay plate (Axygen; 384 Deep well “Diamond Plate”, clear). After incubation of the binding reaction at room temperature (RT) for 90 min 50 μL of the assay were transferred to a MultiscreenHTS 384 FC filter plate (Millipore), which has been pre-wetted with 20 μL 0.01% PEI/0.01% Triton X-100 for at least 30 min at RT. Then, 30 μL it wash buffer (10 mM HEPES/NaOH, pH 7.4, 130 mM NaCl, 2 mM MgCl2, 1 mM CaCl2) equilibrated to RT were added to each well of the assay plate and subsequently transferred to the filter plate. The assay mixture was aspirated through the filter plate using a Biotek ELx405™ washer. The filter plate was washed twice with 100 μl cold wash buffer per wash and well and then dried in a drying oven for at least 75 min at 55° C. Afterwards, the bottom of each filter plate was heat sealed with a solid foil seal, then 10 μL of Microscint™ 0 (Perkin Elmer) were added to each well of the filter plate and finally, the top of each filter plate was sealed with a clear seal. The plates were stored for at least 20 min in a MicroBeta2 reader (Perkin Elmer) before they are counted (60 sec/well).
as §1

For orientation: IC50 means the point on the concentration scale where inhibition reaches its midpoint.

T2 sequence (Q12809 whole entry): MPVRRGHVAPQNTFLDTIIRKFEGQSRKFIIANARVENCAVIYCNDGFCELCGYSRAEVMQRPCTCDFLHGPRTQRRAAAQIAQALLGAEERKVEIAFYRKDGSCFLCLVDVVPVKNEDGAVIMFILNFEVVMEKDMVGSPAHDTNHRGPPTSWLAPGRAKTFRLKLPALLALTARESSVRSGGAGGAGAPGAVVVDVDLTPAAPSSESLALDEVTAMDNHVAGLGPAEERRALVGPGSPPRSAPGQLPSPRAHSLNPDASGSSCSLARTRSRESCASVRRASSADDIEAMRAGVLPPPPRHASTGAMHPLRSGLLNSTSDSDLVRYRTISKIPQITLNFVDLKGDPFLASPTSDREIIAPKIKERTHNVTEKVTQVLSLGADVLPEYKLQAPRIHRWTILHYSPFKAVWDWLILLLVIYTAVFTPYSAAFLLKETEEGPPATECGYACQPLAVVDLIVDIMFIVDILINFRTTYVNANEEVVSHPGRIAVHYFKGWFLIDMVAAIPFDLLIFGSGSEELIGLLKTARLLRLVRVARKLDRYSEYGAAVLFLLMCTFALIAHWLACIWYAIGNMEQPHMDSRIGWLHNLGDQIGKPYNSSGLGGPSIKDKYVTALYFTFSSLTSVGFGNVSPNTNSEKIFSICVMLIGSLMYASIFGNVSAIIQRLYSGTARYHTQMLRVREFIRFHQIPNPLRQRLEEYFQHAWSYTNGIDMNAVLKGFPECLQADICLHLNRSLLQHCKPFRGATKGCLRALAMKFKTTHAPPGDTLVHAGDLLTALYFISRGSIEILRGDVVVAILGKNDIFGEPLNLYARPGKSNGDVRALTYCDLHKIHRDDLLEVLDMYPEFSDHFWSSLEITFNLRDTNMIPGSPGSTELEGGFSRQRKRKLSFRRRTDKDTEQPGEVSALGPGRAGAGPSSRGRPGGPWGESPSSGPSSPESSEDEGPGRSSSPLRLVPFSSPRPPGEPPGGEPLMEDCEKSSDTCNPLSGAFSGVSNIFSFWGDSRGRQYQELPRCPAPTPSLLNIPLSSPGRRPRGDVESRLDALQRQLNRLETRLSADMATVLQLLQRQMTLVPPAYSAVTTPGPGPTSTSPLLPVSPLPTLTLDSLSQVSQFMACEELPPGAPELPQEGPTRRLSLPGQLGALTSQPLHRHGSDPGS
Chain of CYP3A4 (column heading prints CYP2D6; method and table sentence say CYP3A4) (P08684 2-503): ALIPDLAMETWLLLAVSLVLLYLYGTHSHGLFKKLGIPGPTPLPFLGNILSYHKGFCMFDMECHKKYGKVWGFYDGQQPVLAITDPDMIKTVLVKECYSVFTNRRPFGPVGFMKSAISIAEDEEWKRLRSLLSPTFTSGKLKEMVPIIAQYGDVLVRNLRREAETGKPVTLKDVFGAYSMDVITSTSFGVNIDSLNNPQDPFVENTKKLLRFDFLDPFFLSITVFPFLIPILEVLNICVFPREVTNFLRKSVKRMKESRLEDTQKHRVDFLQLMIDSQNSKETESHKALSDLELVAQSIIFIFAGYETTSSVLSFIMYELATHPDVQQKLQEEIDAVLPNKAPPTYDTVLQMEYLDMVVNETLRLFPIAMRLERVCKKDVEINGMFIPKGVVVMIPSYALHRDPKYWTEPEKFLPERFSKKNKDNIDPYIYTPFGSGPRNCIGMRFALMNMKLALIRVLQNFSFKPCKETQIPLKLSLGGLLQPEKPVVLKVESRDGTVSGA

For the molecule `C[C@H]1OC(=O)[C@]2(O)CC(F)(F)[C@@H](C)[C@H](/C=C/c3ccc(-c4cccnc4C#N)cn3)[C@H]12` [Example 1, 6′-((E)-2-((3R,3aR,4R,5S,7aS)-6,6-difluoro-7a-hydroxy-3,5-dimethyl-1-oxooctahydroisobenzofuran-4-yl)vinyl)-[3,3′-bipyridine]-2-carbonitrile], the half-inhibitory concentration (IC50) on PAR-1 receptor was found to be 0.0059 µM. The half-inhibitory concentration (IC50) at 10 min in series [1] is at least 50 µM. The IC50 at 90 min on hERG channel is at least 60 µM.

As to `C[C@H]1OC(=O)[C@]2(O)CC(F)(F)[C@@H](C)[C@H](/C=C/c3ccc(-c4cccnc4-c4ccccc4)cn3)[C@H]12` [Example 2, (3R,3aR,4R,5S,7aS)-6,6-difluoro-7a-hydroxy-3,5-dimethyl-4-((E)-2-(2′-phenyl-[3,3′-bipyridin]-6-yl)vinyl)hexahydroisobenzofuran-1(3H)-one], the IC50 is 0.009 µM on PAR-1 receptor and 39.8 µM at hERG channel. Also, the IC50 at 10 min in series [1] came to 28.5 µM.

Turning to `COc1ncccc1-c1ccc(/C=C/[C@@H]2[C@@H]3[C@@H](C)OC(=O)[C@]3(O)CC(F)(F)[C@H]2C)nc1` [Example 3, (3R,3aR,4R,5S,7aS)-6,6-difluoro-7a-hydroxy-4-((E)-2-(2′-methoxy-[3,3′-bipyridin]-6-yl)vinyl)-3,5-dimethylhexahydroisobenzofuran-1(3H)-one], the IC50 on PAR-1 receptor was 0.0054 µM. The same molecule yielded an IC50 at 10 min in series [1] of at least 50 µM. Besides, the half-maximal inhibitory concentration (IC50) at 90 min at hERG channel was at least 60 µM.

`C[C@H]1OC(=O)[C@]2(O)CC(F)(F)[C@@H](C)[C@H](/C=C/c3ccc(-c4cccnc4Cl)cn3)[C@H]12` [Example 4, (3R,3aR,4R,5S,7aS)-4-((E)-2-(2′-chloro-[3,3′-bipyridin]-6-yl)vinyl)-6,6-difluoro-7a-hydroxy-3,5-dimethylhexahydroisobenzofuran-1(3H)-one]: the IC50 on PAR-1 receptor is 0.0078 µM; at hERG channel, 18.7 µM. The molecule also had an IC50 at 10 min in series [1] of at least 50 µM.

`C[C@H]1OC(=O)[C@]2(O)CC(F)(F)[C@@H](C)[C@H](/C=C/c3ccc(-c4cccnc4F)cn3)[C@H]12` [Example 5]: the half-inhibitory concentration (IC50) on PAR-1 receptor came out at 0.0162 µM. The molecule further came in with an IC50 at 10 min in series [1] of at least 50 µM. Further, the IC50 at 90 min at hERG channel is at least 60 µM.

As to `C[C@H]1OC(=O)[C@]2(O)CC(F)(F)[C@@H](C)[C@H](/C=C/c3ccc(-c4cccnc4C4CC4)cn3)[C@H]12` [Example 6, (3R,3aR,4R,5S,7aS)-4-((E)-2-(2′-cyclopropyl-[3,3′-bipyridin]-6-yl)vinyl)-6,6-difluoro-7a-hydroxy-3,5-dimethylhexahydroisobenzofuran-1(3H)-one], on PAR-1 receptor, the half-inhibitory concentration (IC50) turned out to be 0.0104 µM. Besides, the IC50 at 10 min in series [1] was at least 50 µM. Moreover, the IC50 at 90 min on hERG channel is at least 60 µM.

For `Cc1ccc(-c2ncccc2-c2ccc(/C=C/[C@@H]3[C@@H]4[C@@H](C)OC(=O)[C@]4(O)CC(F)(F)[C@H]3C)nc2)s1` [Example 7, (3R,3aR,4R,5S,7aS)-6,6-difluoro-7a-hydroxy-3,5-dimethyl-4-((E)-2-(2′-(5-methylthiophen-2-yl)-[3,3′-bipyridin]-6-yl)vinyl)hexahydroisobenzofuran-1(3H)-one], the figures for the IC50 at PAR-1 receptor and at hERG channel were 0.0152 µM and 20.8 µM, respectively. The half-inhibitory concentration (IC50) at 10 min in series [1] is at least 50 µM.

Molecule `C[C@H]1OC(=O)[C@]2(O)CC(F)(F)[C@@H](C)[C@H](/C=C/c3ccc(-c4cccnc4-c4cncn4C)cn3)[C@H]12` [Example 8, (3R,3aR,4R,5S,7aS)-6,6-difIuoro-7a-hydroxy-3,5-dimethyl-4-((E)-2-(2′-(l-methyl-1H-imidazol-5-yl)-[3,3′-bipyridin]-6-yl)vinyl)hexahydroisobenzofuran-1(3H)-one] gave an IC50 at 10 min in series [1] of at least 50 µM. For the same molecule, the IC50 at 90 min at hERG channel is at least 60 µM.

On to `C[C@H]1OC(=O)[C@]2(O)CC(F)(F)[C@@H](C)[C@H](/C=C/c3ccc(-c4cccnc4N4CC(F)(F)C4)cn3)[C@H]12` [Example 9, (3R,3aR,4R,5S,7aS)-4-((E)-2-(2′-(3,3-difluoroazetidin-1-yl)-[3,3′-bipyridin]-6-yl)vinyl)-6,6-difluoro-7a-hydroxy-3,5-dimethylhexahydroisobenzofuran-1(3H)-one], for which, at PAR-1 receptor, the IC50 was 0.0924 µM. Besides, the 50% inhibitory concentration (IC50) at 10 min in series [1] is at least 50 µM. The IC50 at 90 min at hERG channel is at least 60 µM.

Values taken from patent US9808473B2, “Preparation and use of 3-pyridyl substituted-6,6-difluoro bicyclic himbacine derivatives as par-1 receptor antagonists” (Merck Sharp & Dohme Corp., priority 2013, dated 2017).
